The assay is filed under the species Rattus norvegicus. The assay is described as follows: Effects of isomer (100 uM) upon 10 uM L-HCA-induced depolarization; Control. The class given is functional.
In the case of `N[C@@H](C(=O)O)[C@H](CC(=O)O)c1ccc(Cl)cc1`, the Others amounted to 94.2%.
`N[C@H](C(=O)O)[C@@H](CC(=O)O)c1ccc(Cl)cc1` showed an Others of 114.5%.
For `NC(C(=O)O)[C@H](CC(=O)O)c1ccc(Cl)cc1` (stereo partly drawn), the Others was 130.4%.

Source of the values: ChEMBL document CHEMBL1129410, “Diastereoselective synthesis of all four isomers of 3-(4-chlorophenyl) glutamic acid: identification of the isomers responsible for the potentiation of L-homocysteic acid-evoked depolarizations in neonatal rat motoneurons” (1996).
